Measured values reported in ChEMBL document CHEMBL1133068, “Novel 2,2-dioxide-4,4-disubstituted-1,3-H-2,1,3-benzothiadiazines as non-nucleoside reverse transcriptase inhibitors” (Bioorg Med Chem Lett, 2000).
Counter-ions that a name gives are not always drawn. The source made the active and inactive calls. The rule behind the calls is not given here.

Experiments:
[1] = molecular target: T1, Human immunodeficiency virus type 1 reverse transcriptase (Human immunodeficiency virus 1, UniProt Q72547); experiment: The compound was evaluated for the inhibition of HIV-1 reverse transcriptase
[2] = The compound was evaluated for antiviral activity using whole cell assay; assay type: functional
[3] = molecular target: T1, Human immunodeficiency virus type 1 reverse transcriptase; experiment: The compound was evaluated for the inhibition of HIV-1 reverse transcriptase; Inactive
[4] = The compound was evaluated for antiviral activity using whole cell assay; Inactive; assay type: functional

| IC50 [1] | IC90 [2] | Compound | IC50 [3] | IC90 [4] |
| --- | --- | --- | --- | --- |
| 0.031 µM | 0.002 µM | O=C1Nc2ccc(Cl)cc2[C@@](C#CC2CC2)(C(F)(F)F)N1 | – | – |
| – | – | O=S1(=O)Nc2ccc(Cl)cc2C(C#Cc2ccccn2)(C2CC2)N1 (stereo not drawn) | Not Active | inactive |
| 35.9 µM | 0.279 µM | O=S1(=O)Nc2ccc(Cl)cc2C(C#CC2CC2)(C2CC2)N1 (stereo not drawn) | – | – |
| 24.7 µM | 0.284 µM | O=S1(=O)Nc2ccc(F)c(F)c2C(C#CC2CC2)(C(F)(F)F)N1 (stereo not drawn) | – | – |
| 4.63 µM | 0.182 µM | CC(C)C#CC1(C2CC2)NS(=O)(=O)Nc2ccc(Cl)cc21 (stereo not drawn) | – | – |
| – | – | O=S1(=O)Nc2ccc(Cl)cc2C(C#Cc2ccccc2)(C2CC2)N1 (stereo not drawn) | Not Active | inactive |
| – | 0.05 µM | CC(C)Nc1cccnc1N1CCN(C(=O)c2cc3cc(NS(C)(=O)=O)ccc3[nH]2)CC1 [DELAVIRDINE MESYLATE] | – | – |
| 0.137 µM | 0.643 µM | CC(C)C#CC1(C(C)C)NS(=O)(=O)Nc2ccc(Cl)cc21 (stereo not drawn) | – | – |
| – | 0.0017 µM | O=C1Nc2ccc(Cl)cc2[C@@](C#CC2CC2)(C(F)(F)F)O1 [EFAVIRENZ] | – | – |

| Compound | IC50 [1] | IC90 [2] | IC50 [3] | IC90 [4] |
| --- | --- | --- | --- | --- |
| CCC#CC1(C(C)C)NS(=O)(=O)Nc2ccc(Cl)cc21 (stereo not drawn) | – | 0.961 µM | Not Active | – |
| Cc1ccnc2c1NC(=O)c1cccnc1N2C1CC1 [NEVIRAPINE] | – | 0.037 µM | – | – |
| CC(C)C1(C#CC2CC2)NS(=O)(=O)Nc2ccc(Cl)cc21 (stereo not drawn) | – | 0.677 µM | Not Active | – |
| CCC#CC1(C2CC2)NS(=O)(=O)Nc2ccc(Cl)cc21 (stereo not drawn) | – | 0.611 µM | Not Active | – |
